From patent publication US20130195919A1, “INDUCED DENDRITIC CELL COMPOSITIONS AND USES THEREOF” (PRESIDENT AND FELLOWS OF HARVARD COLLEGE, priority 2010, published 2013)

Tests used:
DC [1] = test: Oxygen consumption rate (OCR) of DC; format: cell-based, mouse; settings: 2 h activation; oATP with or without LPS co-treatment
Method: Mitochondria oxygen consumption rate (OCR) was measured by using a YSI 5300 Clark-type electrode (Yellow Springs Instrument, Yellow Springs, Ohio, USA) or the XF24 Extracellular Flux Analyzer (Seahorse Bioscience, Billerica, Mass.) following the manufacturer's protocol. Primary cultured DC (10^6 cells/well) were used as described in the experiments.
The effect of the activation of DC on the O2 consumption rate (OCR) was tested to attempt to correlate increased OCR with increased immunogenicity.
(§1) The effect of direct inhibition of mitochondrial respiration, by an inhibitor of mitochondrial respiratory complex I, rotenone, was tested. […] Control DC were treated with LPS without OVA pulsing. T cell proliferation was analyzed by CFSE dilution on D3.

DC [2] = test: Ex vivo Treg differentiation: Foxp3 induction in Tn by treated DC; format: cell-based, mouse
DC [3] = test: DC maturation marker expression by FACS; format: cell-based, mouse; settings: 100 μM, 6 hours
Method: DC were isolated and kept for 6 hours at 4 degrees (ctrlDC 4C) or culture to produce ctrlDC (37C), lpsDC itDC and it/lpsDC. Simultaneously cells were treated with the purinergic receptor agonists ATP (1 mM) and Bz-ATP (100 μM), purinergic receptors antagonists oxidized ATP (oATP, 100 μM) and suranim (100 μM), the adenosine monophosphate kinase (AMPK) stimulator AICAR (100 μM) and the enzyme Apyrase (200 U/ml) that catalyses ATP. Cells were harvested after 6 hours and the expression of the indicated markers was assessed by FACS.

DC [4] = test: DC immunogenicity: OT-II T cell proliferation by CFSE dilution; format: cell-based, mouse; settings: LPS plus 1 mM rotenone; CFSE dilution on D3
Method: as §1

DC [5] = tested on: DC

| Compound | OCR of DC (DC [1]) | DC maturation (expression of markers) (DC [3]) | other results |
| --- | --- | --- | --- |
| Nc1ncnc2c1ncn2[C@@H]1O[C@H](COP(=O)(O)OP(=O)(O)OP(=O)(O)O)[C@@H](O)[C@H]1O [ATP, adenosine triphosphate] | enhanced OCR levels in DCs | – | – |
| Periodate-oxidized ATP [oATP] | reduced OCR | block DC maturation | capacity to imprint DC with tolerogenic potential (percentages of Foxp3 and CD25 expressing cells) (DC [2]; DC incubated 2 hours, oATP 100 μM, 5 days in coculture): significantly imprints DC with tolerogenic potential; tolerogenic capacity compared with the combination of rapamycin and TGFβ (DC [2]; oATP 100 μM vs rapamycin 10 nM and TGFβ 2 ng/ml): matches or exceeds |
| C=C(C)[C@H]1Cc2c(ccc3c2O[C@@H]2COc4cc(OC)c(OC)cc4[C@@H]2C3=O)O1 [rotenone] | – | – | T cell proliferation induced by antigen pulsed, LPS matured DC (DC [4]): induced much less T cell proliferation; toxicity to DC (maturation markers CD80, C86, MHC-II and migration to CCL21) (DC [5]): not toxic to DC |
| NC(=O)c1ncn([C@@H]2O[C@H](CO)[C@@H](O)[C@H]2O)c1N [AICAR, 5-aminoimidazole-4-carboxamide-1-β-4-ribofuranoside] | – | block DC maturation | – |
